Laboratory results reported in PubChem BioAssay AID1963984 (Molecular Pharmacology Branch, DTP, NCI, 2024).

System: 233499-124-R-J3-PDC spheroids with HUVEC/MSC, viability
Test: Anticancer human tumor 233499-124-R-J3-PDC patient-derived colon adenocarcinoma cell line growth inhibition [PI3K]
Settings: for IC50: curve of first compound; for viability, T/C: stronger effect = lower value; active = viability on the fitted dose curve at most 10% of control; inactive = the rest
In short: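 We assembled tumor spheroids that included a stromal compartment of HUVEC and MSCs, then exposed them to targeted agents alone and together with PI3K pathway inhibitors. Concentration series descended by half-log from clinically achievable Cmax levels. Viability served as the endpoint.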

[1] = second compound 0.00316 µM, first compound 0.0316 µM
[2] = second compound 0.00316 µM, first compound 0.1 µM
[3] = second compound 0.00316 µM, first compound 0.316 µM
[4] = second compound 0.00316 µM, first compound 1 µM
[5] = second compound 0.00316 µM, first compound 3.16 µM
[6] = second compound 0.00316 µM, first compound 10 µM
[7] = second compound 0.01 µM, first compound 0.0316 µM
[8] = second compound 0.01 µM, first compound 0.1 µM
[9] = second compound 0.01 µM, first compound 0.316 µM
[10] = second compound 0.01 µM, first compound 1 µM
[11] = second compound 0.01 µM, first compound 3.16 µM
[12] = second compound 0.01 µM, first compound 10 µM
[13] = second compound 0.0316 µM, first compound 0.0316 µM
[14] = second compound 0.0316 µM, first compound 0.1 µM
[15] = second compound 0.0316 µM, first compound 0.316 µM
[16] = second compound 0.0316 µM, first compound 1 µM
[17] = second compound 0.0316 µM, first compound 3.16 µM
[18] = second compound 0.0316 µM, first compound 10 µM
[19] = second compound 0.1 µM, first compound 0.0316 µM
[20] = second compound 0.1 µM, first compound 0.1 µM
[21] = second compound 0.1 µM, first compound 0.316 µM
[22] = second compound 0.1 µM, first compound 1 µM
[23] = second compound 0.1 µM, first compound 3.16 µM
[24] = second compound 0.1 µM, first compound 10 µM
[25] = second compound 0.316 µM, first compound 0.0316 µM
[26] = second compound 0.316 µM, first compound 0.1 µM
[27] = second compound 0.316 µM, first compound 0.316 µM
[28] = second compound 0.316 µM, first compound 1 µM
[29] = second compound 0.316 µM, first compound 3.16 µM
[30] = second compound 0.316 µM, first compound 10 µM
[31] = second compound 1 µM, first compound 0.0316 µM
[32] = second compound 1 µM, first compound 0.1 µM
[33] = second compound 1 µM, first compound 0.316 µM
[34] = second compound 1 µM, first compound 1 µM
[35] = second compound 1 µM, first compound 3.16 µM
[36] = second compound 1 µM, first compound 10 µM
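Note: spheroids exposed to agents for seven days before readout.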
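Throughout, for viability, T/C: percent viability relative to DMSO vehicle control taken as 100%.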

CC(C)NCC(C(=O)N1CCN(c2ncnc3c2C(C)CC3O)CC1)c1ccc(Cl)cc1 (stereo unspecified) + COc1c(OCCCN2CCOCC2)ccc2c3n(c(=NC(=O)c4cnc(N)nc4)nc12)CCN3
inactive: viability, T/C [1] 92.1% | viability, T/C [2] 88.9% | viability, T/C [3] 74% | viability, T/C [4] 81.8% | viability, T/C [5] 98.8% | viability, T/C [6] 81.5% | viability, T/C [7] 103% | viability, T/C [8] 96.6% | viability, T/C [9] 82.7% | viability, T/C [10] 97.1% | viability, T/C [11] 90% | viability, T/C [12] 80.2% | viability, T/C [13] 81% | viability, T/C [14] 98.1% | viability, T/C [15] 76.6% | viability, T/C [16] 84.4% | viability, T/C [17] 84.3% | viability, T/C [18] 84.1% | viability, T/C [19] 68.4% | viability, T/C [20] 76.4% | viability, T/C [21] 61.4% | viability, T/C [22] 52.2% | viability, T/C [23] 49.7% | viability, T/C [24] 65.8% | viability, T/C [25] 32.2% | viability, T/C [26] 32% | viability, T/C [27] 31.9% | viability, T/C [28] 17.1% | viability, T/C [29] 35.4% | viability, T/C [30] 20.6% | viability, T/C [31] 5.67% | viability, T/C [32] 11.1% | viability, T/C [33] 6.6% | viability, T/C [34] 11.4% | viability, T/C [35] 16.2% | viability, T/C [36] 10.2%
< 31.6 nM: IC50 (second compound 0.316 µM) | IC50 (second compound 1 µM)
> 10000 nM: IC50 (second compound 0.00316 µM) | IC50 (second compound 0.01 µM) | IC50 (second compound 0.0316 µM) | IC50 (second compound 0.1 µM)

CCN1CCN(Cc2ccc(Nc3ncc(F)c(-c4cc(F)c5nc(C)n(C(C)C)c5c4)n3)nc2)CC1 + COc1c(OCCCN2CCOCC2)ccc2c3n(c(=NC(=O)c4cnc(N)nc4)nc12)CCN3
816 nM: IC50 (second compound 0.01 µM)
inactive: viability, T/C (second compound 0.00316 µM, first compound 0.00316 µM) 81.7% | viability, T/C (second compound 0.00316 µM, first compound 0.01 µM) 92% | viability, T/C [1] 79.2% | viability, T/C [2] 60.8% | viability, T/C [3] 77.3% | viability, T/C [4] 48.6% | viability, T/C (second compound 0.01 µM, first compound 0.00316 µM) 84.3% | viability, T/C (second compound 0.01 µM, first compound 0.01 µM) 105% | viability, T/C [7] 97% | viability, T/C [8] 83.6% | viability, T/C [9] 71.2% | viability, T/C [10] 45.5% | viability, T/C (second compound 0.0316 µM, first compound 0.00316 µM) 89.2% | viability, T/C (second compound 0.0316 µM, first compound 0.01 µM) 85.6% | viability, T/C [13] 80.9% | viability, T/C [14] 57% | viability, T/C [15] 59.6% | viability, T/C [16] 23.7% | viability, T/C (second compound 0.1 µM, first compound 0.00316 µM) 81.3% | viability, T/C (second compound 0.1 µM, first compound 0.01 µM) 46% | viability, T/C [19] 49.2% | viability, T/C [20] 49.1% | viability, T/C [21] 44.4% | viability, T/C [22] 32% | viability, T/C (second compound 0.316 µM, first compound 0.00316 µM) 34.3% | viability, T/C (second compound 0.316 µM, first compound 0.01 µM) 16.4% | viability, T/C [25] 30.5% | viability, T/C [26] 20.7% | viability, T/C [27] 23.7% | viability, T/C [28] 22.9%
> 1000 nM: IC50 (second compound 0.00316 µM)
active: viability, T/C (second compound 1 µM, first compound 0.00316 µM) 8.08% | viability, T/C (second compound 1 µM, first compound 0.01 µM) 11.5% | viability, T/C [31] 10.4% | viability, T/C [32] 9.39% | viability, T/C [33] 7.45% | viability, T/C [34] 11.2%
< 3.16 nM: IC50 (second compound 0.316 µM) | IC50 (second compound 1 µM)
330 nM: IC50 (second compound 0.0316 µM)
9.08 nM: IC50 (second compound 0.1 µM)

Cn1ncc(Cl)c1-c1cc(C(=O)NC(CN)Cc2cccc(F)c2)sc1Cl (stereo unspecified) + COc1c(OCCCN2CCOCC2)ccc2c3n(c(=NC(=O)c4cnc(N)nc4)nc12)CCN3
4100 nM: IC50 (second compound 0.00316 µM)
2780 nM: IC50 (second compound 0.01 µM)
inactive: viability, T/C [1] 70.1% | viability, T/C [2] 88.1% | viability, T/C [3] 83.2% | viability, T/C [4] 83.7% | viability, T/C [5] 58.9% | viability, T/C [6] 19.6% | viability, T/C [7] 81.6% | viability, T/C [8] 97.4% | viability, T/C [9] 98.8% | viability, T/C [10] 77.8% | viability, T/C [11] 46.8% | viability, T/C [12] 46.1% | viability, T/C [13] 81.9% | viability, T/C [14] 80.1% | viability, T/C [15] 78.8% | viability, T/C [16] 59.6% | viability, T/C [17] 36.3% | viability, T/C [18] 20.5% | viability, T/C [19] 61.7% | viability, T/C [20] 62.8% | viability, T/C [21] 56.9% | viability, T/C [22] 37.7% | viability, T/C [23] 36.7% | viability, T/C [24] 16.1% | viability, T/C [25] 21.4% | viability, T/C [26] 42.5% | viability, T/C [27] 19.2% | viability, T/C [28] 34.3% | viability, T/C [29] 31.9% | viability, T/C [30] 11.3%
516 nM: IC50 (second compound 0.1 µM)
active: viability, T/C [31] 8.63% | viability, T/C [32] 9.16% | viability, T/C [33] 15.4% | viability, T/C [34] 10.9% | viability, T/C [35] 7.03% | viability, T/C [36] 1.23%
1640 nM: IC50 (second compound 0.0316 µM)
< 31.6 nM: IC50 (second compound 0.316 µM) | IC50 (second compound 1 µM)
